Laboratory results from patent US11072612B2, “NLRP3 modulators” (INNATE TUMOR IMMUNITY, INC., priority 2016, dated 2021).

Assays:
Assay type in all cases: cell-based
hNLRP3 = target: T1, hNLRP3 (Homo sapiens, UniProt Q96P20); test: hNLRP3 agonist assay: IL-1β production in PMA-differentiated THP-1 cells (ELISA); conditions: IL-1β by ELISA
T1 construct: THP-1 cells were purchased from the American Type Culture Collection; host or cells: THP-1 cells, PMA-differentiated

TLR8 = target: T2, TLR8 (Homo sapiens, UniProt Q9NR97); test: TLR8 EC50 assay
T2 sequence (Q9NR97 27-1041): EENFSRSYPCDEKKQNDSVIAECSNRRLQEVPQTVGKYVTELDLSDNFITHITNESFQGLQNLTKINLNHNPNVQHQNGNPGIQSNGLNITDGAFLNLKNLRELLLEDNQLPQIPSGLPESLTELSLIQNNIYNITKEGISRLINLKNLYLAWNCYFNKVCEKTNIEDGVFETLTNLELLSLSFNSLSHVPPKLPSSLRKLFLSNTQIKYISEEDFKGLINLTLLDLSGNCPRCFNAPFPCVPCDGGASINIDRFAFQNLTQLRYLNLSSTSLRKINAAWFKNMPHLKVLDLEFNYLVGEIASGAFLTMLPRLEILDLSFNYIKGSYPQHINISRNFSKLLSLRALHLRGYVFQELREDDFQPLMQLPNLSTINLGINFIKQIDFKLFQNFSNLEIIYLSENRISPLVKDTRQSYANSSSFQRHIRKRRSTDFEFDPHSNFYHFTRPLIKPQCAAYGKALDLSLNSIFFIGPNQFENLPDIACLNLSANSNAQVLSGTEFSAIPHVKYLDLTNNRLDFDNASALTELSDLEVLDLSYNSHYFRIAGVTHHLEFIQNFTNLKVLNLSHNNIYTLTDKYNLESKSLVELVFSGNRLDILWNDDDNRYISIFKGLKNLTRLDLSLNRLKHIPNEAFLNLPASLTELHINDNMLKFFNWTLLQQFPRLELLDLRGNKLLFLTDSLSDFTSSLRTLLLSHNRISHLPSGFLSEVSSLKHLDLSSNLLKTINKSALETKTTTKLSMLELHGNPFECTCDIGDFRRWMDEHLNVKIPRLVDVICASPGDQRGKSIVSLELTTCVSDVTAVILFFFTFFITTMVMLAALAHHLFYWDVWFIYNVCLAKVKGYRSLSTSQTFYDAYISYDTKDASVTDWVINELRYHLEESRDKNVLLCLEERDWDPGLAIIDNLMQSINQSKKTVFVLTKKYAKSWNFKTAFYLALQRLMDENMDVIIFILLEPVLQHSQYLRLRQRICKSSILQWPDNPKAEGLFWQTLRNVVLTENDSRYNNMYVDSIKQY

TLR7 = target: T3, TLR7 (Homo sapiens, UniProt Q9NYK1); test: TLR7 EC50 assay
T3 sequence (Q9NYK1 27-1049): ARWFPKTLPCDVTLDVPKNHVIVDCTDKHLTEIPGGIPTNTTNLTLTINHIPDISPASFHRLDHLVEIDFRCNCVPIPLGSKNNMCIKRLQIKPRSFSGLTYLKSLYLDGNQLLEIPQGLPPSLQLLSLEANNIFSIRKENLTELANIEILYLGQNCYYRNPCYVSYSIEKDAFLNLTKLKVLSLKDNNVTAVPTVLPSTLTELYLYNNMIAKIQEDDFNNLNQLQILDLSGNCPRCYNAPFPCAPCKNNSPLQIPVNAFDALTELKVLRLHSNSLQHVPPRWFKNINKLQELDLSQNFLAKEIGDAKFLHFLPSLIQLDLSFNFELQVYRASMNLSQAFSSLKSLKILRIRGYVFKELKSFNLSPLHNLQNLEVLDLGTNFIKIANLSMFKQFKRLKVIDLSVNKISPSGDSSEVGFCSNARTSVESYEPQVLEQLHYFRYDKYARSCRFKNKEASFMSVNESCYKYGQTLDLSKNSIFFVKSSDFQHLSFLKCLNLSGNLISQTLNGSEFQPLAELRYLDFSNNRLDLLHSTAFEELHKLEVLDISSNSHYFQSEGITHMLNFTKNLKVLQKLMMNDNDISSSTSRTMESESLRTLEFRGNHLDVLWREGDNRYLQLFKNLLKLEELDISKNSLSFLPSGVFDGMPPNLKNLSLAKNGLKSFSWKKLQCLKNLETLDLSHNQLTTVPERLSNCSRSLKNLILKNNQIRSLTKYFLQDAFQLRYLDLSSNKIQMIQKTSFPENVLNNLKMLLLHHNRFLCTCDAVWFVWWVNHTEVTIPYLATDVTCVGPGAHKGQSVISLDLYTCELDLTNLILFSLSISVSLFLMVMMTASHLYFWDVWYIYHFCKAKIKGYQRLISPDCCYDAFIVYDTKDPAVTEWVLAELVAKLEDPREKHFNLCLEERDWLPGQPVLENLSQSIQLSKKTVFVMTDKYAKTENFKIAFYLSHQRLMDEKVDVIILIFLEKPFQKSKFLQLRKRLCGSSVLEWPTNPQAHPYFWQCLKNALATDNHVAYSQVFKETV

T1 sequence (Q96P20 whole entry): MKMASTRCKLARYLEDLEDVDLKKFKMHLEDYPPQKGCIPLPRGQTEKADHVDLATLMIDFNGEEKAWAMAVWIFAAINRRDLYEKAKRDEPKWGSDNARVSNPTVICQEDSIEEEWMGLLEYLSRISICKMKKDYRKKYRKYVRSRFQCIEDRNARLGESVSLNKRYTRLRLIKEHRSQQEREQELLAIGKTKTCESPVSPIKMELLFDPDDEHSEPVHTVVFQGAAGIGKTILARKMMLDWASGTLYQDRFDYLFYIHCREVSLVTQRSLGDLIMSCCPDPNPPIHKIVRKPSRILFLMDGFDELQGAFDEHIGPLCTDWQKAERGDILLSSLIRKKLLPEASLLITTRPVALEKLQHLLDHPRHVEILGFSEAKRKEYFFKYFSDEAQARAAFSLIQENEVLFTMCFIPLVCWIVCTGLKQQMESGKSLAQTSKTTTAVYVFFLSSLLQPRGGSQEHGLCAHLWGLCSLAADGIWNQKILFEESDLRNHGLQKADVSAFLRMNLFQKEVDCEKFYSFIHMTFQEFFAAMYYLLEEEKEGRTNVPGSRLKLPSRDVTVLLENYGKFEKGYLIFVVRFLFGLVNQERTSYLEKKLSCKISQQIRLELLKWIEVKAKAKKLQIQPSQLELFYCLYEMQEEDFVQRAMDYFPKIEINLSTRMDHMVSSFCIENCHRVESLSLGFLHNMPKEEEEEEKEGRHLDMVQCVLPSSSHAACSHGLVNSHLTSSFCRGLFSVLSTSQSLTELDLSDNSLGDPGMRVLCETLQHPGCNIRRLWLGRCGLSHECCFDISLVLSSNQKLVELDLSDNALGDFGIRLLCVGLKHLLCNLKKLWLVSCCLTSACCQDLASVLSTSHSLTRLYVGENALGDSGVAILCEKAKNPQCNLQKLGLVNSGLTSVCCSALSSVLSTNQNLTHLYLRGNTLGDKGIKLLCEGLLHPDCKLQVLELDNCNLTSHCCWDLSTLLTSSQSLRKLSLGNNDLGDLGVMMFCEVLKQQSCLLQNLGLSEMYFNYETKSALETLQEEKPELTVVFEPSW

EC50 (hNLRP3; Table 2, 4 hours) | EC50 (TLR8; Table 2) | EC50 (TLR7; Table 2) | EC50 (hNLRP3; Table 1, 4 hours) | EC50 (TLR8; Table 1) | EC50 (TLR7; Table 1) | Structure (SMILES)
1 to 20 µM | > 100 µM | > 100 µM |  |  |  | Nc1nc2cc(Br)ccc2c2[nH]c([C@H]3CC[C@@H](O)CC3)nc12 [Compound 122]
1 to 20 µM | > 100 µM | > 100 µM |  |  |  | COc1cccc(-c2ccc3c(c2)nc(N)c2nc(CCCOCc4ccccc4)[nH]c23)n1 [Compound 247]
1 to 20 µM | > 100 µM | > 100 µM |  |  |  | CCN(C(C)=O)C(C)(C)c1nc2c(N)nc3cc(-c4cc[nH]n4)ccc3c2[nH]1 [Compound 253]
≤ 1 µM | > 100 µM | > 100 µM |  |  |  | Nc1nc2cc(-c3ccccn3)ccc2c2[nH]c(CCCO)nc12 [Compound 185, 3-(4-amino-7-pyridin-2-yl-1H-imidazo[4,5-c]quinolin-2-yl)propan-1-ol]
1 to 20 µM | > 100 µM | > 100 µM |  |  |  | COC(=O)CCCn1c(CCCO)nc2c(N)nc3cc(Br)ccc3c21 [Compound 141]
1 to 20 µM | > 100 µM | > 100 µM |  |  |  | Nc1nc2cc(-c3cccc(=O)[nH]3)ccc2c2[nH]c(CCCO)nc12 [Compound 239]
> 100 µM | > 100 µM | > 100 µM |  |  |  | Nc1nc2cc(-c3cccnc3F)ccc2c2[nH]c(CCCOCc3ccccc3)nc12 [Compound 157, 7-(2-fluoropyridin-3-yl)-2-(3-phenylmethoxypropyl)-1H-imidazo[4,5-c]quinolin-4-amine]
> 100 µM | > 100 µM | > 100 µM |  |  |  | Cc1ccccc1-c1ccc2c(c1)nc(N)c1nc(CCCO)[nH]c12 [Compound 199, 3-[4-amino-7-(2-methylphenyl)-1H-imidazo[4,5-c]quinolin-2-yl]propan-1-ol]
20 to 100 µM | > 100 µM | > 100 µM |  |  |  | Nc1nc2cc(-c3ccncc3)ccc2c2[nH]c(CCCOCc3ccccc3)nc12 [Compound 148, 2-(3-phenylmethoxypropyl)-7-pyridin-4-yl-1H-imidazo[4,5-c]quinolin-4-amine]
20 to 100 µM | > 100 µM | > 100 µM |  |  |  | Nc1nc2ccccc2c2[nH]c([C@H]3C[C@H](O)C3)nc12 [Compound 133]
> 100 µM | > 100 µM | > 100 µM |  |  |  | Nc1nc2cc(-c3cncc4ccccc34)ccc2c2[nH]c(CCCO)nc12 [Compound 192, 3-(4-amino-7-isoquinolin-4-yl-1H-imidazo[4,5-c]quinolin-2-yl)propan-1-ol]
1 to 20 µM | > 100 µM | > 100 µM |  |  |  | CN(CCCc1nc2c(N)nc3cc(-c4cncnc4)ccc3c2[nH]1)C(=O)OC(C)(C)C [Compound 123]
20 to 100 µM | > 100 µM | > 100 µM |  |  |  | CC(=O)N1CCC(c2nc3c(N)nc4cc(Br)ccc4c3[nH]2)CC1 [Compound 226]
> 100 µM | > 100 µM | 20 to 100 µM |  |  |  | Cc1ncccc1-c1ccc2c(c1)nc(N)c1nc(CCCO)[nH]c12 [Compound 214, 3-[4-amino-7-(2-methylpyridin-3-yl)-1H-imidazo[4,5-c]quinolin-2-yl]propan-1-ol]
> 100 µM | > 100 µM | > 100 µM |  |  |  | Nc1nc2cc(C3CCOCC3)ccc2c2[nH]c(CCCO)nc12 [Compound 196, 3-[4-amino-7-(oxan-4-yl)-1H-imidazo[4,5-c]quinolin-2-yl]propan-1-ol]
1 to 20 µM | > 100 µM | > 100 µM |  |  |  | Nc1nc2cc(-c3ccc[nH]c3=O)ccc2c2[nH]c(CCCO)nc12 [Compound 238]

EC50 (hNLRP3; Table 2, 4 hours) | EC50 (TLR8; Table 2) | EC50 (TLR7; Table 2) | EC50 (hNLRP3; Table 1, 4 hours) | EC50 (TLR8; Table 1) | EC50 (TLR7; Table 1) | Structure (SMILES)
20 to 100 µM | > 100 µM | > 100 µM |  |  |  | Nc1nc2ccccc2c2[nH]c([C@H]3CC[C@H](O)CC3)nc12 [Compound 135]
1 to 20 µM | > 100 µM | > 100 µM |  |  |  | CCCn1cc(-c2ccc3c(c2)nc(N)c2nc(CCCO)[nH]c23)cn1 [Compound 153, 3-[4-amino-7-(1-propylpyrazol-4-yl)-1H-imidazo[4,5-c]quinolin-2-yl]propan-1-ol]
> 100 µM | > 100 µM | > 100 µM |  |  |  | CN(C)c1ncc(-c2ccc3c(c2)nc(N)c2nc(CCCO)[nH]c23)cn1 [Compound 156, 3-[4-amino-7-[2-(dimethylamino)pyrimidin-5-yl]-1H-imidazo[4,5-c]quinolin-2-yl]propan-1-ol]
> 100 µM | > 100 µM | > 100 µM |  |  |  | N#Cc1cccc(-c2ccc3c(c2)nc(N)c2nc(CCCO)[nH]c23)c1 [Compound 207, 3-[4-amino-2-(3-hydroxypropyl)-1H-imidazo[4,5-c]quinolin-7-yl]benzonitrile]
1 to 20 µM | > 100 µM | > 100 µM |  |  |  | Cc1cc(-c2ccc3c(c2)nc(N)c2nc(CCCO)[nH]c23)n(C)n1 [Compound 151, 3-[4-amino-7-(2,5-dimethylpyrazol-3-yl)-1H-imidazo[4,5-c]quinolin-2-yl]propan-1-ol]
> 100 µM | > 100 µM | > 100 µM |  |  |  | CN(C)c1nc(-c2ccc3c(c2)nc(N)c2nc(CCCO)[nH]c23)cs1 [Compound 177, 3-[4-amino-7-[2-(dimethylamino)-1,3-thiazol-4-yl]-1H-imidazo[4,5-c]quinolin-2-yl]propan-1-ol]
1 to 20 µM | > 100 µM | > 100 µM |  |  |  | Nc1nc2cc(Br)ccc2c2[nH]c(C3CCN(S(=O)(=O)c4ccccc4)CC3)nc12 [Compound 220]
20 to 100 µM | > 100 µM | > 100 µM |  |  |  | Nc1nc2cc(F)c(F)cc2c2[nH]c(CCCO)nc12 [Compound 136]
 |  |  | 20 to 100 µM | 20 to 100 µM | 20 to 100 µM | Nc1nc2ccccc2c2[nH]c(CCCO)nc12 [Compound 101, 3-[4-amino-1H-imidazo[4,5-c]quinolin-2-yl]propan-1-ol]
1 to 20 µM | > 100 µM | > 100 µM |  |  |  | Nc1nc2cc(-c3cccnc3)ccc2c2[nH]c(CCCO)nc12 [Compound 147, 3-(4-amino-7-pyridin-3-yl-1H-imidazo[4,5-c]quinolin-2-yl)propan-1-ol]
20 to 100 µM | > 100 µM | > 100 µM |  |  |  | Nc1nc2ccccc2c2[nH]c([C@H]3C[C@@H](O)C3)nc12 [Compound 132]
20 to 100 µM | 20 to 100 µM | > 100 µM |  |  |  | Nc1nc2cc(Br)ccc2c2[nH]c(C3CCC(N)CC3)nc12 (stereo not drawn) [Compound 131]
1 to 20 µM | > 100 µM | > 100 µM |  |  |  | Nc1nc2cc(-c3ccncc3)ccc2c2[nH]c(CCCO)nc12 [Compound 149]
> 100 µM | > 100 µM | > 100 µM |  |  |  | COc1ccccc1-c1ccc2c(c1)nc(N)c1nc(CCCO)[nH]c12 [Compound 201, 3-[4-amino-7-(2-methoxyphenyl)-1H-imidazo[4,5-c]quinolin-2-yl]propan-1-ol]
20 to 100 µM | > 100 µM | > 100 µM |  |  |  | CN1CCC[C@H](c2nc3c(N)nc4ccccc4c3[nH]2)C1 [Compound 138]
